Reference: patent publication US20240207427A1, “SELECTIVE DRUG RELEASE FROM INTERNALIZED CONJUGATES OF BIOLOGICALLY ACTIVE COMPOUNDS” (priority 2021, published 2024)
Where two headings read alike, the source gives them in different places.

Columns and labels:
Assay type in all cases: cell-based
[1] = system: renal carcinoma cells (786-O); assay: In vitro potency (CellTiter-Glo, 96 h), 786-O; details: Homo sapiens, 786-0, 96 h, CPT free drugs, renal carcinoma cells 786-O, 96 h, CellTiter-Glo
Method: (§1) In vitro potency was assessed on multiple cancer cell lines. All cell lines were authenticated by STR profiling at IDEXX Bioresearch and cultured for no more than 2 months after resuscitation. Cells cultured in log-phase growth were seeded for 24 hours in 96-well plates containing […] RPMI 1640 supplemented with 20% FBS. Serial dilutions of antibody-drug conjugates in cell culture media were prepared at 4× working concentrations, and 50 μL of each dilution was added to the 96-well plates. Following addition of test articles, cells were incubated with test articles for 4 days at 37 0° C. After 96 hours, growth inhibition was assessed by CellTiterGlo® (Promega, Madison, WI) and luminescence was measured on a plate reader.
(§2) In Table 7, IC50 values for ADCs are given in ng/mL. Cell viability was determined by CellTiter-Glo staining after 96 h exposure to ADC. ND=Not Determined. Ag2 is an antibody targeting a ubiquitous and readily internalizable antigen. The cancer cell lines tested are renal carcinoma cells (786-0), melanoma cells (A2058), pancreatic cancer cells (BxPC3), non-small-cell lung cancer cells (Calu1), anaplastic large cell lymphoma cells (DEL, DELBVR, Karpas299), Hodgkin's lymphoma cells (L540cy), (Ls174T), breast cancer cells (MDA-MB-231), acute myeloid leukemia cells (MOLM-13), and B-lymphocyte cancer cells (SU-DHL4).
(§3) In vitro potency was assessed on multiple cancer cell lines. All cell lines were authenticated by STR profiling at IDEXX Bioresearch and cultured for no more than 2 months after resuscitation. Cells cultured in log-phase growth were seeded for 24 hours in 96-well plates containing […] RPMI 1640 supplemented with 20% FBS. Following addition of test articles, cells were incubated with test articles for 4 days at 37 0° C. After 96 hours, growth inhibition was assessed by CellTiterGlo® (Promega, Madison, WI) and luminescence was measured on a plate reader.
(§4) Cell viability was determined by CellTiter-Glo staining after 96 h exposure to the compound. ND=Not Determined. The cancer cell lines tested are renal carcinoma cells (786-0), melanoma cells (A2058), pancreatic cancer cells (BxPC3), non-small-cell lung cancer cells (Calu1), anaplastic large cell lymphoma cells (DEL, DELBVR, Karpas299), Hodgkin's lymphoma cells (L540cy), (Ls 174T), breast cancer cells (MDA-MB-231), acute myeloid leukemia cells (MOLM-13), B-lymphocyte cancer cells (SU-DHL4), multiple myeloma cells (MM.1R), (U266), and melanoma cells (SK-MEL-5).
as §1, with “37°” for “37 0°”
(§5) In the following Tables IC50 values for ADCs and CPT free drugs are given in ng/mL and nmol/L concentrations. Cell viability was determined by CellTiter-Glo staining after 96 h exposure to ADC or CPT free drug.
(§6) Cell viability was determined by CellTiter-Glo staining after 96 h exposure to ADC. ND=Not Determined.

[2] = system: pancreatic cancer cells (BxPC3); assay: In vitro potency (CellTiter-Glo, 96 h), BxPC3; details: Homo sapiens, BXPC-3, 96 h, CPT free drugs, pancreatic cancer cells BxPC3, 96 h, CellTiter-Glo
Method: as §1, §2, §3, §4
as §1, with “37°” for “37 0°”
as §5, §6

[3] = system: anaplastic large cell lymphoma cells (DEL); assay: In vitro potency (CellTiter-Glo, 96 h), DEL
Method: as §1, §2, §3, §4
as §1, with “37°” for “37 0°”
as §5, §6

[4] = system: anaplastic large cell lymphoma cells (DELBVR); assay: In vitro potency (CellTiter-Glo, 96 h), DELBVR
Method: as §1, §2, §3, §4
as §1, with “37°” for “37 0°”
as §5, §6

[5] = system: anaplastic large cell lymphoma cells (Karpas299); assay: In vitro potency (CellTiter-Glo, 96 h), Karpas299; details: Homo sapiens, KARPAS-299, 96 h, CPT free drugs, anaplastic large cell lymphoma cells Karpas299, 96 h, CellTiter-Glo
Method: as §1, §2, §3, §4
as §1, with “37°” for “37 0°”
as §5, §6

[6] = system: Hodgkin's lymphoma cells (L540cy); assay: In vitro potency (CellTiter-Glo, 96 h), L540cy
Method: as §1, §2, §3, §4
as §1, with “37°” for “37 0°”
as §5, §6

Ls174T cells = assay: In vitro potency (CellTiter-Glo, 96 h), Ls174T; details: Homo sapiens, LS174T, 96 h, CPT free drugs, Ls174T cells, 96 h, CellTiter-Glo
Method: as §1, §2, §3, §4
as §1, with “37°” for “37 0°”
as §5, §6

[7] = system: breast cancer cells (MDA-MB-231); assay: In vitro potency (CellTiter-Glo, 96 h), MDA-MB-231; details: Homo sapiens, MDA-MB-231, 96 h, CPT free drugs, breast cancer cells MDA-MB-231, 96 h, CellTiter-Glo
Method: as §1, §2, §3, §4
as §1, with “37°” for “37 0°”
as §5, §6

[8] = system: acute myeloid leukemia cells (MOLM-13); assay: In vitro potency (CellTiter-Glo, 96 h), MOLM-13; details: Homo sapiens, MOLM-13, 96 h, CPT free drugs, acute myeloid leukemia cells MOLM-13, 96 h, CellTiter-Glo
Method: as §1, §2, §3, §4
as §1, with “37°” for “37 0°”
as §5, §6

[9] = system: B-lymphocyte cancer cells (SU-DHL4); assay: In vitro potency (CellTiter-Glo, 96 h), SU-DHL-4; details: Homo sapiens, SU-DHL-4, 96 h, CPT free drugs, B-lymphocyte cancer cells SU-DHL4, 96 h, CellTiter-Glo
Method: as §1, §2, §3, §4
as §1, with “37°” for “37 0°”
as §5, §6

[10] = read-out: DEL IC50, Table 29, CPT free drugs, anaplastic large cell lymphoma cells DEL, CellTiter-Glo
[11] = read-out: DELBVR IC50, Table 29, CPT free drugs, anaplastic large cell lymphoma cells DELBVR, CellTiter-Glo
[12] = read-out: Karpas299 IC50, Table 29
[13] = read-out: L540cy IC50, Table 29, CPT free drugs, Hodgkin's lymphoma cells L540cy, CellTiter-Glo
[14] = read-out: Ls174T IC50, Table 29
[15] = read-out: MDAMB231 IC50, Table 29
[16] = read-out: MOLM-13 IC50, Table 29
[17] = read-out: SU-DHL-4 IC50, Table 29
[18] = read-out: DEL IC50, Table 28, CPT free drugs, anaplastic large cell lymphoma cells DEL, CellTiter-Glo
[19] = read-out: DELBVR IC50, Table 28, CPT free drugs, anaplastic large cell lymphoma cells DELBVR, CellTiter-Glo
[20] = read-out: Karpas299 IC50, Table 28
[21] = read-out: L540cy IC50, Table 28, CPT free drugs, Hodgkin's lymphoma cells L540cy, CellTiter-Glo
[22] = read-out: Ls174T IC50, Table 28
[23] = read-out: MDAMB231 IC50, Table 28
[24] = read-out: MOLM-13 IC50, Table 28
[25] = read-out: SU-DHL-4 IC50, Table 28

SMILES: CC[C@@]1(O)C(=O)OCc2c1cc1n(c2=O)Cc2c-1nc1cc3c(cc1c2CNCCN1CCNCC1)OCO3 [Compound 8b]
- IC50 ([1]; read-out: 786-O IC50, Table 29): 102 nM
- IC50 ([2]; read-out: BxPC3 IC50, Table 29): 51 nM
- IC50 [3, 10]: 8 nM
- IC50 [4, 11]: 13 nM
- IC50 [5, 12]: 62 nM
- IC50 [6, 13]: 56 nM
- IC50 (Ls174T cells; [14]): 111 nM
- IC50 [7, 15]: 260 nM
- IC50 [8, 16]: 91 nM
- IC50 [9, 17]: 17 nM

SMILES: CC[C@@]1(O)C(=O)OCc2c1cc1n(c2=O)Cc2c-1nc1cc(F)c(C)c(Cl)c1c2CNC(C)=O [Compound 12a]
- IC50 ([1]; read-out: 786-O IC50, Table 28): 1 nM
- IC50 ([2]; read-out: BxPC3 IC50, Table 28): 2 nM
- IC50 [3, 18]: 0.2 nM
- IC50 [4, 19]: 0.2 nM
- IC50 [5, 20]: 1 nM
- IC50 [6, 21]: 0.4 nM
- IC50 (Ls174T cells; [22]): 7 nM
- IC50 [7, 23]: 2 nM
- IC50 [8, 24]: 1 nM
- IC50 [9, 25]: 0.4 nM

SMILES: CC[C@@]1(O)C(=O)OCc2c1cc1n(c2=O)Cc2c-1nc1cc3c(cc1c2CNC1CCNCC1)OCO3 [Compound 8e]
- IC50 ([1]; read-out: 786-O IC50, Table 29): 104 nM
- IC50 ([2]; read-out: BxPC3 IC50, Table 29): 62 nM
- IC50 [3, 10]: 7 nM
- IC50 [4, 11]: 10 nM
- IC50 [5, 12]: 72 nM
- IC50 [6, 13]: 36 nM
- IC50 (Ls174T cells; [14]): 109 nM
- IC50 [7, 15]: 102 nM
- IC50 [8, 16]: 89 nM
- IC50 [9, 17]: 25 nM

SMILES: C=Cc1c(C)c(F)cc2nc3c(c(CN)c12)Cn1c-3cc2c(c1=O)COC(=O)[C@]2(O)CC [Compound 2am, (S)-11-(aminomethyl)-4-ethyl-8-fluoro-4-hydroxy-9-methyl-10-vinyl-1,12-dihydro-14H-pyrano[3′,4′:6,7]indolizino[1,2-b]quinoline-3,14(4H)-dione]
- IC50 ([1]; read-out: 786-O IC50, Table 28): 2 nM
- IC50 ([2]; read-out: BxPC3 IC50, Table 28): 4 nM
- IC50 [3, 18]: 0.3 nM
- IC50 [4, 19]: 0.3 nM
- IC50 [5, 20]: 2 nM
- IC50 [6, 21]: 1 nM
- IC50 (Ls174T cells; [22]): 5 nM
- IC50 [7, 23]: 5 nM
- IC50 [8, 24]: 2 nM
- IC50 [9, 25]: 1 nM

SMILES: CC[C@@]1(O)C(=O)OCc2c1cc1n(c2=O)Cc2c-1nc1cc3c(cc1c2CN1CCC(N)CC1)OCO3 [Compound 8f]
- IC50 ([1]; read-out: 786-O IC50, Table 29): 267 nM
- IC50 ([2]; read-out: BxPC3 IC50, Table 29): 166 nM
- IC50 [3, 10]: 14 nM
- IC50 [4, 11]: 30 nM
- IC50 [5, 12]: 110 nM
- IC50 [6, 13]: 84 nM
- IC50 (Ls174T cells; [14]): 236 nM
- IC50 [7, 15]: 207 nM
- IC50 [8, 16]: 32 nM
- IC50 [9, 17]: 32 nM

SMILES: CC[C@@]1(O)C(=O)OCc2c1cc1n(c2=O)Cc2c-1nc1cc3c(cc1c2CNC[C@@H](O)CN1CCCCC1)OCO3 [Compound 7z]
- IC50 ([1]; read-out: 786-O IC50, Table 29): 123 nM
- IC50 ([2]; read-out: BxPC3 IC50, Table 29): 127 nM
- IC50 [3, 10]: 17 nM
- IC50 [4, 11]: 16 nM
- IC50 [5, 12]: 150 nM
- IC50 [6, 13]: 48 nM
- IC50 (Ls174T cells; [14]): 79 nM
- IC50 [7, 15]: 306 nM
- IC50 [8, 16]: 143 nM
- IC50 [9, 17]: 39 nM

SMILES: C=C(C)c1c(C)c(F)cc2nc3c(c(CN)c12)Cn1c-3cc2c(c1=O)COC(=O)[C@]2(O)CC [Compound 2al]
- IC50 ([1]; read-out: 786-O IC50, Table 28): 4 nM
- IC50 ([2]; read-out: BxPC3 IC50, Table 28): 7 nM
- IC50 [3, 18]: 1 nM
- IC50 [4, 19]: 1 nM
- IC50 [5, 20]: 4 nM
- IC50 [6, 21]: 2 nM
- IC50 (Ls174T cells; [22]): 11 nM
- IC50 [7, 23]: 9 nM
- IC50 [8, 24]: 2 nM
- IC50 [9, 25]: 1 nM

SMILES: CC[C@@]1(O)C(=O)OCc2c1cc1n(c2=O)Cc2c-1nc1cc3c(cc1c2CNC(C)=O)OCO3 [Compound 12b]
- IC50 ([1]; read-out: 786-O IC50, Table 28): 12 nM
- IC50 ([2]; read-out: BxPC3 IC50, Table 28): 11 nM
- IC50 [4, 19]: 1 nM
- IC50 [5, 20]: 8 nM
- IC50 [6, 21]: 4 nM
- IC50 (Ls174T cells; [22]): 22 nM
- IC50 [7, 23]: 28 nM
- IC50 [8, 24]: 3 nM
- IC50 [9, 25]: 1 nM

SMILES: CC[C@@]1(O)C(=O)OCc2c1cc1n(c2=O)Cc2c-1nc1cc3c(cc1c2CNC(=O)CN)CCO3 [Compound 13]
- IC50 ([1]; read-out: 786-O IC50, Table 28): 139 nM
- IC50 ([2]; read-out: BxPC3 IC50, Table 28): 94 nM
- IC50 [3, 18]: 8 nM
- IC50 [4, 19]: 21 nM
- IC50 [5, 20]: 126 nM
- IC50 [6, 21]: 45 nM
- IC50 (Ls174T cells; [22]): 195 nM
- IC50 [7, 23]: 177 nM
- IC50 [8, 24]: 88 nM
- IC50 [9, 25]: 18 nM
